Article PMC8005217, “Unravelling Regioselectivity of Leuconostoc citreum ABK-1 Alternansucrase by Acceptor Site Engineering” (International Journal of Molecular Sciences, 2021)

Key:
Experiment in all cases: DNS reducing sugar assay (total activity)
Type in all cases: biochemical
Conditions in all cases: 0–368 mM sucrose, 50 mM sodium citrate pH 4.0, 40 °C, read-out: Km or k
[1] = biological target: T1, LcALT (truncated Leuconostoc citreum ABK-1 alternansucrase, pETΔ7SH, WT) (Leuconostoc citreum, UniProt A0A2H4A2Q1, W554F, form not given)
T1 construct: gene asr; pET19b via NcoI/XhoI, purified recombinant; exact borders and tags only in cited earlier work
T1 sequence (A0A2H4A2Q1 entry or part of it W554F, form open): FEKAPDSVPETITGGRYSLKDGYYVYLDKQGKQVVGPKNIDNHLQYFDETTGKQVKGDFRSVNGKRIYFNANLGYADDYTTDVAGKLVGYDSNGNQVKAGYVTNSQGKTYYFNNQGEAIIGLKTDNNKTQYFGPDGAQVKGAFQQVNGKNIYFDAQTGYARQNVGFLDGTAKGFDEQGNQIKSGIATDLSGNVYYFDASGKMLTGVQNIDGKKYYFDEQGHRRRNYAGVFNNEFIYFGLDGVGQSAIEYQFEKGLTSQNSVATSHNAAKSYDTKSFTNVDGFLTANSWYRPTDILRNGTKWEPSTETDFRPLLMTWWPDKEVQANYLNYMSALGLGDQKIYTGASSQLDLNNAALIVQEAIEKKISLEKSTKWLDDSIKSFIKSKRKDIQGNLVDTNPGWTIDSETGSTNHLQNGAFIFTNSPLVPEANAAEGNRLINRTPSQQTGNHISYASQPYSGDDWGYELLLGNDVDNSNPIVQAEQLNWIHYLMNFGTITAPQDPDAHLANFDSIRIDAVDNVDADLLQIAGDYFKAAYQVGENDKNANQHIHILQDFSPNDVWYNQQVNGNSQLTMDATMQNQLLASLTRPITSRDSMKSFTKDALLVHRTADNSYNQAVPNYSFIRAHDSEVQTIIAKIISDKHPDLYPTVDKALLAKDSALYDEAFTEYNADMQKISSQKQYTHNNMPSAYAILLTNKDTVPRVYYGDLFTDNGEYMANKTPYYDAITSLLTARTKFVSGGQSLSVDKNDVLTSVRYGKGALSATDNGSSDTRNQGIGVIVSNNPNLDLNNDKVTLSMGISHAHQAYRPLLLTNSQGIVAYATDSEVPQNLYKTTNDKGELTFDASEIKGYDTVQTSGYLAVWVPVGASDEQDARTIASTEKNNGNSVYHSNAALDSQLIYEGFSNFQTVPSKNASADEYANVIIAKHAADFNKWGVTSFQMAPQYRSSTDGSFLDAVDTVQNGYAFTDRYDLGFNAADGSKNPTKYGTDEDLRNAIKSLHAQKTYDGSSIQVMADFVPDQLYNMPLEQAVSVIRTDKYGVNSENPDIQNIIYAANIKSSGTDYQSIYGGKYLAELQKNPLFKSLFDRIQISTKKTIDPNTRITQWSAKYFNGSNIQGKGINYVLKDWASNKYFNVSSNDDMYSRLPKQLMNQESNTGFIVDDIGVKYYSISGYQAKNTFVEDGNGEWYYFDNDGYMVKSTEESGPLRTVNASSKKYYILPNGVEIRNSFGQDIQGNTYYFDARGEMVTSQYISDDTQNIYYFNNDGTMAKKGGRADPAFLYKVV
Description: (§1) DNS reducing sugar assay (total activity) on LcALT (truncated Leuconostoc citreum ABK-1 alternansucrase, pETΔ7SH, WT)

[2] = biological target: T2, LcALT (truncated Leuconostoc citreum ABK-1 alternansucrase, pETΔ7SH, WT) (Leuconostoc citreum, UniProt A0A2H4A2Q1, W554S, form not given)
T2 construct: gene asr; pET19b via NcoI/XhoI, purified recombinant; exact borders and tags only in cited earlier work
T2 sequence (A0A2H4A2Q1 entry or part of it W554S, form open): as the sequence (A0A2H4A2Q1 entry or part of it W554F, form open) above, with F554S counted along it
Description: as §1

[3] = biological target: T3, LcALT (truncated Leuconostoc citreum ABK-1 alternansucrase, pETΔ7SH, WT) (Leuconostoc citreum, UniProt A0A2H4A2Q1, W554I, form not given)
T3 construct: gene asr; pET19b via NcoI/XhoI, purified recombinant; exact borders and tags only in cited earlier work
T3 sequence (A0A2H4A2Q1 entry or part of it W554I, form open): as the sequence (A0A2H4A2Q1 entry or part of it W554F, form open) above, with F554I counted along it
Description: as §1

[4] = biological target: T4, LcALT (truncated Leuconostoc citreum ABK-1 alternansucrase, pETΔ7SH, WT) (Leuconostoc citreum, UniProt A0A2H4A2Q1, W554Y, form not given)
T4 construct: gene asr; pET19b via NcoI/XhoI, purified recombinant; exact borders and tags only in cited earlier work
T4 sequence (A0A2H4A2Q1 entry or part of it W554Y, form open): as the sequence (A0A2H4A2Q1 entry or part of it W554F, form open) above, with F554Y counted along it
Description: as §1

[5] = biological target: T5, LcALT (truncated Leuconostoc citreum ABK-1 alternansucrase, pETΔ7SH, WT) (Leuconostoc citreum, UniProt A0A2H4A2Q1, W554L, form not given)
T5 construct: gene asr; pET19b via NcoI/XhoI, purified recombinant; exact borders and tags only in cited earlier work
T5 sequence (A0A2H4A2Q1 entry or part of it W554L, form open): as the sequence (A0A2H4A2Q1 entry or part of it W554F, form open) above, with F554L counted along it
Description: as §1

[6] = biological target: T6, LcALT (truncated Leuconostoc citreum ABK-1 alternansucrase, pETΔ7SH, WT) (Leuconostoc citreum, UniProt A0A2H4A2Q1, W554A, form not given)
T6 construct: gene asr; pET19b via NcoI/XhoI, purified recombinant; exact borders and tags only in cited earlier work
T6 sequence (A0A2H4A2Q1 entry or part of it W554A, form open): as the sequence (A0A2H4A2Q1 entry or part of it W554F, form open) above, with F554A counted along it
Description: as §1

OC[C@H]1O[C@@](CO)(O[C@H]2O[C@H](CO)[C@@H](O)[C@H](O)[C@H]2O)[C@@H](O)[C@@H]1O [sucrose] was tested, and the Km [1] was 16.6 ± 2.1 mM, the Km [2] was 63.6 ± 8.3 mM and the Km [3] was 53.1 ± 4.6 mM. The Km [4] was 14.2 ± 2 mM, the Km [5] was 46.4 ± 6 mM and the Km [6] was 43 ± 4.7 mM.
